From patent US12479825B2, “Melanocortin subtype-2 receptor (MC2R) antagonists and uses thereof” (Crinetics Pharmaceuticals, Inc., priority 2019, dated 2025) come the findings set out here.

Bounds are passed on as bounds.

This test deals with T1, hMC2 receptor (Homo sapiens, UniProt Q01718).
T1 construct: host or cells: CRE-bla-CHO-K1 cells, crude membrane fraction
T1 sequence (Q01718 whole entry): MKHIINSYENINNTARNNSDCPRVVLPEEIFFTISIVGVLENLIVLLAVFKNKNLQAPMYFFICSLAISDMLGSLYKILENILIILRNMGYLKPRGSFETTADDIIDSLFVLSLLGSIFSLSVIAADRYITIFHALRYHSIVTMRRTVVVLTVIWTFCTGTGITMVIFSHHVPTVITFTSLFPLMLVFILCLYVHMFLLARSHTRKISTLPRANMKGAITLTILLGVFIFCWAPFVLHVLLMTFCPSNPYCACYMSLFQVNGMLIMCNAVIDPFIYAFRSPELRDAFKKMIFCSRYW
T1 sequence (Q8TCY5 whole entry partner): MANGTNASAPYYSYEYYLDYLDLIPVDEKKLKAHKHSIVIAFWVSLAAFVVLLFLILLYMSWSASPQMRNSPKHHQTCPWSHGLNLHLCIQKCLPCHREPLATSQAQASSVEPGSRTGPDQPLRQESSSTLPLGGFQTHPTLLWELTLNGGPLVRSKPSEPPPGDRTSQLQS
The experiment in a line: hMC2 membrane binding assay ([125I]ACTH (1-39) Tyr23, SPA). The following applies: crude hMC2R membranes from CRE-bla-CHO-K1 cells expressing hMC2 receptor and hMRAP; 0.2 nM [125I]ACTH (1-39) Tyr23; 1.5 hours at room temperature; read-out: MC2R binding potency. As to the method:
Crude membrane fractions are prepared from CRE-bla-CHO-K1 cells stably expressing hMC2 receptor and hMRAP accessory protein (Thermo Fisher). The cells are grown to 85-100% confluence on standard tissue culture dishes in GlutaMax DMEM growth media (Gibco) with following additives: 10% dialyzed FBS (Gemini), 0.1 mM NEAA (Gibco), 25 mM HEPES (Gibco), 5 μg/mL blasticidin (Goldbio), 100 μg/mL zeocin (Invitrogen), 600 μg/mL hygromycin (Goldbio). To prepare membranes, cells are scraped and collected in 1× Dulbecco's phosphate buffered saline (Corning) and then pelleted at 1000 RPM's. The cell pellet is reconstituted in membrane preparation buffer (20 mM HEPES, 6 mM MgCl2 and 1 mM EGTA, protease inhibitor tablets (Pierce) adjusted to pH 7.4), homogenized using a dounce homogenizer, and the resulting membrane fraction is pelleted by centrifugation at 12,000 RPM's. The membrane pellet is resuspended in membrane preparation buffer, snap freezed and stored at −80° C. for later use.
The hMC2 membrane binding assay utilizes the following components: radiolabel [^125I]ACTH (1-39) Tyr23 (PerkinElmer), wheat germ agglutinin coated PVT SPA beads (PerkinElmer), crude hMC2R membranes, and compounds. Briefly hMC2R membranes are incubated with SPA beads in binding assay buffer (50 mM HEPES, 5 mM MgCl2, 1 mM CaCl2, 0.2% BSA, protease inhibitor tablets (Pierce) adjusted to pH7.4) prior to assay initiation. A dose response of compound (the final concentration of compound is typically 0-10,000 nM), SPA membranes, and [^125I]ACTH (1-39) Tyr23 at a final concentration of 0.2 nM is plated in a 96-well assay plate and allowed to incubate 1.5 hours at room temperature. Assay plates are read using a Top Count NXT and Ki values for compounds are determined using a GraphPad Prism 6 non-linear regression analysis.
In the case of `CCOc1ncccc1-c1ccc(N2CC[C@@H](Oc3ccc(Cl)nc3C(F)(F)F)C[C@H]2C2CC2)c(C(=O)N[C@@H]2CCN(C)C2)n1` (racemic) [2-8, 5-[cis*-4-{[6-chloro-2-(trifluoromethyl)pyridin-3-yl]oxy}-2-cyclopropylpiperidin-1-yl]-2′-ethoxy-N-[(3R)-1-methylpyrrolidin-3-yl]-[2,3′-bipyridine]-6-carboxamide], the Ki is below 10 nM.
In the case of `CCOc1ncccc1-c1ccc(N2CC[C@H](Oc3ccc(C(F)(F)F)cc3C#N)C[C@@H]2C2CC2)c(C(=O)N[C@@H]2CCN(C)C2)n1` (mixture of isomers) [2-6, 5-{cis-4-[2-cyano-4-(trifluoromethyl)phenoxy]-2-cyclopropylpiperidin-1-yl}-2′-ethoxy-N-[(3R)-1-methylpyrrolidin-3-yl]-[2,3′-bipyridine]-6-carboxamide], the Ki is below 10 nM.
`CCOc1ncccc1-c1ccc(N2CCN(C(=O)N3CCC[C@H]3C(F)(F)F)C[C@H]2CC)c(OCCNC)n1` [1-11, [2-({2′-ethoxy-5-[(2R)-2-ethyl-4-[(2S)-2-(trifluoromethyl)pyrrolidine-1-carbonyl]piperazin-1-yl]-[2,3′-bipyridin]-6-yl}oxy)ethyl](methyl)amine]: the Ki is below 10 nM.
`CCOc1ncccc1-c1ccc(N2CCN(C(=O)c3ccc(F)cc3Cl)C[C@H]2CC)c(-c2nnc(CN)[nH]2)n1` [4-2, 1-(5-{5-[(2R)-4-(2-chloro-4-fluorobenzoyl)-2-ethylpiperazin-1-yl]-2′-ethoxy-[2,3′-bipyridin]-6-yl}-4H-1,2,4-triazol-3-yl)methanamine]: the Ki fell in the range of 10 to 100 nM.
Consider `CCOc1ncccc1-c1ccc(N2CC[C@H](Oc3ccc(C(F)(F)F)nc3C#N)C[C@@H]2C2CC2)c(C(=O)N[C@@H]2CCN(C)C2)n1` (mixture of isomers) [2-14, 5-(cis-4-{[2-cyano-6-(trifluoromethyl)pyridin-3-yl]oxy}-2-cyclopropylpiperidin-1-yl)-2′-ethoxy-N-[(3R)-1-methylpyrrolidin-3-yl]-[2,3′-bipyridine]-6-carboxamide], for which the Ki was below 10 nM.
Regarding `CCOc1ncccc1-c1ccc(N2CCN(C(=O)c3ccc(OC)nc3C(F)(F)F)C[C@H]2CC)c(OCCNC)n1` [1-30, [2-({2′-ethoxy-5-[(2R)-2-ethyl-4-[6-methoxy-2-(trifluoromethyl)pyridine-3-carbonyl]piperazin-1-yl]-[2,3′-bipyridin]-6-yl}oxy)ethyl](methyl)amine], the Ki is below 10 nM.
Turning to `CCOc1ncccc1-c1ccc(N2CC[C@H](Oc3ccc(C(F)(F)F)cc3C#N)C[C@@H]2CC)c(C(=O)N[C@@H]2CCN(C)C2)n1` (single isomer, unassigned) [2-12], the Ki fell in the range of 10 to 100 nM.
The result for `CCOc1ccc(C(=O)N2CCN(c3ccc(-c4cccnc4OCC)nc3O[C@@H]3CCNC3)[C@H](CC)C2)c(C(F)(F)F)n1` [1-5, 2′-ethoxy-5-[(2R)-4-[6-ethoxy-2-(trifluoromethyl)pyridine-3-carbonyl]-2-ethylpiperazin-1-yl]-6-[(3R)-pyrrolidin-3-yloxy]-2,3′-bipyridine] reads below 10 nM; that for `CCOc1ncccc1-c1ccc(N2CC[C@@H](Oc3ccc(C(F)(F)F)cc3C#N)C[C@H]2CC)c(C(=O)N[C@@H]2CCN(C)C2)n1` (racemic) [2-2, 5-[(cis*-4-[2-cyano-4-(trifluoromethyl)phenoxy]-2-ethylpiperidin-1-yl]-2′-ethoxy-N-[(3R)-1-methylpyrrolidin-3-yl]-[2,3′-bipyridine]-6-carboxamide], below 10 nM; that for `CCOc1ncccc1-c1ccc(N2CCN(C(=O)N3CCc4cccc(C#N)c43)C[C@H]2CC)c(OCCNC)n1` [1-23, 1-[(3R)-4-{2′-ethoxy-6-[2-(methylamino)ethoxy]-[2,3′-bipyridin]-5-yl}-3-ethylpiperazine-1-carbonyl]-2,3-dihydro-1H-indole-7-carbonitrile], below 10 nM.
In the case of `CCOc1ncccc1-c1ccc(C2CCN(c3ccc(C(F)(F)F)cc3C#N)CC2)c(OCCNC)n1` [3-1, 2-(4-(2′-ethoxy-6-(2-(methylamino)ethoxy)-[2,3′-bipyridin]-5-yl)piperidin-1-yl)-5-(trifluoromethyl)benzonitrile], the Ki is below 10 nM.
In the case of `CCOc1ncccc1-c1ccc(N2CC[C@H](Oc3ccc(C)cc3C#N)C[C@@H]2C2CC2)c(C(=O)N[C@@H]2CCN(C)C2)n1` (mixture of isomers) [2-16, 5-[cis-4-(2-cyano-4-methylphenoxy)-2-cyclopropylpiperidin-1-yl]-2′-ethoxy-N-[(3R)-1-methylpyrrolidin-3-yl]-[2,3′-bipyridine]-6-carboxamide], the Ki is below 10 nM.
On to `CCOc1ncccc1-c1ccc(N2CC[C@H](S(=O)(=O)c3ccccc3C(F)(F)F)C[C@H]2CC)c(C(=O)N[C@@H]2CCN(C)C2)n1` (racemic) [5-2, rac-2′-ethoxy-5-[(2R,4S)-2-ethyl-4-[2-(trifluoromethyl)benzenesulfonyl]piperidin-1-yl]-N-[(3R)-1-methylpyrrolidin-3-yl]-[2,3′-bipyridine]-6-carboxamide], for which the Ki was in the range of 100 to 1000 nM.
Turning to `CCOc1ncccc1-c1ccc(N2CCN(C(=O)c3ccc(Cl)cc3C(F)(F)F)C[C@H]2CC)c(OCCNC)n1` [1-15, [2-({5-[(2R)-4-[4-chloro-2-(trifluoromethyl)benzoyl]-2-ethylpiperazin-1-yl]-2′-ethoxy-[2,3′-bipyridin]-6-yl}oxy)ethyl](methyl)amine], the Ki is below 10 nM.
The result for `CCOc1ncccc1-c1ccc(N2CCN(C(=O)N3CCc4cccc(C#N)c43)C[C@H]2CC)c(OCCN)n1` [1-24, 1-[(3R)-4-[6-(2-aminoethoxy)-2′-ethoxy-[2,3′-bipyridin]-5-yl]-3-ethylpiperazine-1-carbonyl]-2,3-dihydro-1H-indole-7-carbonitrile] reads below 10 nM; that for “5-{cis-4-[4-chloro-2-(difluoromethyl)phenoxy]-2-cyclopropylpiperidin-1-yl}-2′-ethoxy-N-[(3R)-1-methylpyrrolidin-3-yl]-[2,3′-bipyridine]-6-carboxamide [2-7]”, below 10 nM.
Consider `CCOc1ncccc1-c1ccc(N2CC[C@@H](Oc3ccc(C(F)(F)F)nc3C#N)C[C@H]2CC)c(C(=O)N[C@@H]2CCN(C)C2)n1` (single isomer, unassigned) [2-18], for which the Ki was below 10 nM.
Next, `CCOc1ncccc1-c1ccc(N2CC[C@H](Oc3ccc(C(F)(F)F)nc3C#N)C[C@@H]2CC)c(C(=O)N[C@@H]2CCN(C)C2)n1` (mixture of isomers) [2-15, 5-(cis-4-{[2-cyano-6-(trifluoromethyl)pyridin-3-yl]oxy}-2-ethylpiperidin-1-yl)-2′-ethoxy-N-[(3R)-1-methylpyrrolidin-3-yl]-[2,3′-bipyridine]-6-carboxamide]: below 10 nM.
The result for `CCOc1ncccc1-c1ccc(N2CC[C@H](Oc3ccc(C(F)(F)F)nc3C#N)C[C@@H]2CC)c(C(=O)N[C@@H]2CN3CCC2CC3)n1` (mixture of isomers) [2-19, N-[(3S)-1-azabicyclo[2.2.2]octan-3-yl]-5-(cis-4-{[2-cyano-6-(trifluoromethyl)pyridin-3-yl]oxy}-2-ethylpiperidin-1-yl)-2′-ethoxy-[2,3′-bipyridine]-6-carboxamide] reads below 10 nM; that for `CCOc1ncccc1-c1ccc(N2CC[C@@H](Oc3ccc(Cl)cc3C(F)(F)F)C[C@H]2CC)c(O[C@@H]2CCN(C)C2)n1` (mixture of isomers) [3-9, 5-[rac-(2R,4R)-4-[4-chloro-2-(trifluoromethyl)phenoxy]-2-ethylpiperidin-1-yl]-2′-ethoxy-6-{[(3R)-1-methylpyrrolidin-3-yl]oxy}-2,3′-bipyridine], 10 to 100 nM.
On to `CCOc1ccc(C(=O)N2CCN(c3ccc(-c4cccnc4OCC)nc3OC[C@@H](C)N)[C@H](CC)C2)c(C(F)(F)F)n1` [1-19, (2R)-1-({2′-ethoxy-5-[(2R)-4-[6-ethoxy-2-(trifluoromethyl)pyridine-3-carbonyl]-2-ethylpiperazin-1-yl]-[2,3′-bipyridin]-6-yl}oxy)propan-2-amine], for which the Ki is below 10 nM.
`CCOc1ncccc1-c1ccc(N2CC[C@H](Oc3ccc(C)cc3C#N)C[C@@H]2CC)c(C(=O)N[C@@H]2CCN(C)C2)n1` (mixture of isomers) [2-17, 5-[cis-4-(2-cyano-4-methylphenoxy)-2-ethylpiperidin-1-yl]-2′-ethoxy-N-[(3R)-1-methylpyrrolidin-3-yl]-[2,3′-bipyridine]-6-carboxamide]: the Ki is below 10 nM.
With `CCOc1ncccc1-c1ccc(N2CC[C@H](Oc3ccc(F)cc3C#N)C[C@@H]2C2CC2)c(C(=O)N[C@@H]2CCN(C)C2)n1` (mixture of isomers) [2-25, 5-[cis-4-(2-cyano-4-fluorophenoxy)-2-cyclopropylpiperidin-1-yl]-2′-ethoxy-N-[(3R)-1-methylpyrrolidin-3-yl]-[2,3′-bipyridine]-6-carboxamide], the Ki is below 10 nM.
